Results taken from patent publication US9221761B2, “Method for inhibition of deubiquitinating activity” (Vivolux AB, priority 2011, dated 2015).

How the values were obtained:
[1] = tested on: HCT116 colon cancer cells; experiment: Apoptosis in isogenic clones of HCT116 colon cancer cells; format: cell-based
Text: The increase in sub G1 DNA, caspase-3 activation and cleavage of poly-ADP ribose polymerase (PARP) and cytokeratin is associated with an overall decrease in cell viability at drug concentrations that induce the accumulation of polyubiquitin connecting UPS inhibition and apoptosis. Apoptosis induction by bortezomib is sensitive to the status of the p53 tumor suppressor and over-expression of the anti-apoptotic Bcl-2 oncoprotein (11, 12). […] Cell culture. MCF7 cells are maintained in MEM/10% fetal calf serum. HCT-116 p53+/+, p53−/−, Bcl-2+/+, PUMA−/− and BAX−/− cells are maintained in McCoy's 5A modified medium/10% fetal calf serum. The HCT-116 p53+/+, p53−/−, PUMA−/− and BAX−/− are generated as described (25). The HCT-116 Bcl-2+/+ cell line was generated by transfecting parental HCT-116 p53+/+ cells with pCEP4 Bcl-2 (Addgene plasmid 16461) (26) and isolating high expression clones. FaDu and LLC3 cells are maintained in DMEM high glucose medium supplemented with 10% fetal calf serum, Na pyruvate, Hepes and non-essential amino acids. 4T1.12B carcinoma cells are maintained in RPMI medium supplemented with 10% fetal calf serum. The proteasome reporter cell line MelJuSo Ub-YFP was generated as described (12). […] Cell viability is determined by measuring acid phosphatase activity or using the FMCA method (32). […] Absorbance is measured at 405 nm. […]

19S RP = biological target: T1, 19S RP (Homo sapiens, UniProt P54578+Q9Y5K5); experiment: Ubiquitin-cleavage assay (Ub-GFP, ubiquitinated Hdm2); format: biochemical; settings: 19S RP 25 nM, 50 μM compound, 10 min
T1 construct: purchased Boston Biochem E-366
Experimental: Recombinant ubiquitin-GFP is a substrate for 19S RP DUB activity (15). […] The type of ubiquitin bonds present in the polyubiquitin chain determines the fate of an ubiquitin-modified substrate.
Ubiquitin-cleavage assay. The recombinant Ub-GFP plasmid pet19b Ub-M-GFP is generated as described (30). In brief recombinant Ub-GFP is purified from BL21 E. coli cells by His affinity purification. For cleavage assays 19S RP (25 nM) is incubated with 10 mM NEM, 250 μM TPEN or 50 μM of the compound of the invention for 10 min followed by the addition of recombinant Ub-GFP (200 nM). Ubiquitin chain disassembly reactions are performed essentially as above except K48- or K63-linked ubiquitin tetramers (50 ng) are substituted for Ub-GFP. The level of Ub-GFP cleavage or ubiquitin disassembly is determined by immunoblotting with anti ubiquitin antibodies. The ubiquitinated Hdm2 substrate is generated according to the Boston Biochem protocol (K-200). For the cleavage assay 19S RP (25 nM) is incubated with 50 μM of the compound of the invention or DMSO for 10 min followed by the addition of ubiquitinated Hdm2 substrate (100 nM). The cleavage of ubiquitinated Hdm2 substrate and ubiquitinated Hdm2 is determined by immunoblotting with anti-Hdm2 antibodies.

HCT-116 cells = experiment: Cell cycle arrest and DNA damage markers; format: cell-based

SMILES: C=CC(=O)N1C/C(=C\c2ccc([N+](=O)[O-])cc2)C(=O)/C(=C/c2ccc([N+](=O)[O-])cc2)C1 [b-AP15]
- sensitivity of induced apoptosis to over-expression of Bcl-2 and disruption of p52, BAX or PUMA [1]: insensitive
- cleavage of Ub-GFP and ubiquitinated HDM2 by 19S RP (19S RP): efficiently inhibited
- genotoxicity (DNA damage markers phosphorylated p53 Ser 15, H2AX Ser 139) (HCT-116 cells): not a genotoxic agent
